Assay results published in PubChem BioAssay (NCI).
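Five compound concentrations were applied to cells in 96-well plates for 48 hours; endpoints were derived by simple linear interpolation of the resulting dose-response curve. The concentration for 50% growth inhibition is given as GI50. TGI is the concentration that stops growth completely.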

Tests used:
Assay in all cases: NCI anticancer screen, dose series, 48 h
SNB-19 CNS = test system: SNB-19 CNS
OVCAR-8 ovarian = test system: OVCAR-8 ovarian
ACHN renal = test system: ACHN renal
NCI/ADR-RES ovarian = test system: NCI/ADR-RES ovarian
EKVX NSCLC = test system: EKVX NSCLC
CCRF-CEM leukemia = test system: CCRF-CEM leukemia
BT-549 breast = test system: BT-549 breast
CAKI-1 renal = test system: CAKI-1 renal
U251 CNS = test system: U251 CNS
TK-10 renal = test system: TK-10 renal
MOLT-4 leukemia = test system: MOLT-4 leukemia
SK-OV-3 ovarian = test system: SK-OV-3 ovarian
HOP-62 NSCLC = test system: HOP-62 NSCLC
RPMI-8226 leukemia = test system: RPMI-8226 leukemia
HS 578T breast = test system: HS 578T breast
RXF 393 renal = test system: RXF 393 renal
SF-268 CNS = test system: SF-268 CNS
786-0 renal = test system: 786-0 renal
SR leukemia = test system: SR leukemia
SF-295 CNS = test system: SF-295 CNS
NCI-H23 lung = test system: NCI-H23 lung
K-562 leukemia = test system: K-562 leukemia
SNB-75 CNS = test system: SNB-75 CNS
SF-539 CNS = test system: SF-539 CNS
COLO 205 colon = test system: COLO 205 colon
NCI-H460 lung = test system: NCI-H460 lung
M14 melanoma = test system: M14 melanoma
HCT-15 colon = test system: HCT-15 colon
HCT-116 colon = test system: HCT-116 colon
OVCAR-4 ovarian = test system: OVCAR-4 ovarian
SN12C renal = test system: SN12C renal
MDA-MB-435 = test system: MDA-MB-435
A549 NSCLC = test system: A549 NSCLC
UACC-257 melanoma = test system: UACC-257 melanoma
NCI-H522 lung = test system: NCI-H522 lung
HCC-2998 colon = test system: HCC-2998 colon
KM12 colon = test system: KM12 colon
SK-MEL-2 melanoma = test system: SK-MEL-2 melanoma
DU-145 prostate = test system: DU-145 prostate
A498 renal = test system: A498 renal
MCF7 breast = test system: MCF7 breast
SW-620 colon = test system: SW-620 colon
HOP-92 NSCLC = test system: HOP-92 NSCLC
OVCAR-3 ovarian = test system: OVCAR-3 ovarian
HL-60(TB) leukemia = test system: HL-60(TB) leukemia
SK-MEL-5 melanoma = test system: SK-MEL-5 melanoma
UO-31 renal = test system: UO-31 renal
PC-3 prostate = test system: PC-3 prostate
SK-MEL-28 melanoma = test system: SK-MEL-28 melanoma
UACC-62 melanoma = test system: UACC-62 melanoma
OVCAR-5 ovarian = test system: OVCAR-5 ovarian
T-47D breast = test system: T-47D breast
NCI-H226 lung = test system: NCI-H226 lung

Q: For `CNC(=O)c1c(NC(=O)c2ccc(F)cc2F)sc2c1CCC(=O)C2`, which GI50 (SNB-19 CNS) is on record?
A: 440 nM

Q: What about the TGI (SNB-19 CNS) of the same compound?
A: > 52400 nM

Q: And the GI50 (OVCAR-8 ovarian)?
A: 288 nM

Q: What about the TGI (OVCAR-8 ovarian) of the same compound?
A: > 100000 nM

Q: And the GI50 (ACHN renal)?
A: 349 nM

Q: And the TGI (ACHN renal)?
A: 1080 nM

Q: What about the GI50 (NCI/ADR-RES ovarian) of the same compound?
A: 265 nM

Q: What about the TGI (NCI/ADR-RES ovarian) of the same compound?
A: > 100000 nM

Q: And the GI50 (EKVX NSCLC)?
A: 253 nM

Q: What about the TGI (EKVX NSCLC) of the same compound?
A: > 100000 nM

Q: And the GI50 (CCRF-CEM leukemia)?
A: 146 nM

Q: What about the TGI (CCRF-CEM leukemia) of the same compound?
A: > 100000 nM

Q: What about the GI50 (BT-549 breast) of the same compound?
A: 345 nM

Q: And the TGI (BT-549 breast)?
A: 2860 nM

Q: And the GI50 (CAKI-1 renal)?
A: 236 nM

Q: What about the TGI (CAKI-1 renal) of the same compound?
A: 1040 nM

Q: What about the GI50 (U251 CNS) of the same compound?
A: 288 nM

Q: And the TGI (U251 CNS)?
A: > 100000 nM

Q: What about the GI50 (TK-10 renal) of the same compound?
A: 431 nM

Q: And the TGI (TK-10 renal)?
A: 17700 nM

Q: What about the GI50 (MOLT-4 leukemia) of the same compound?
A: 230 nM

Q: What about the TGI (MOLT-4 leukemia) of the same compound?
A: > 100000 nM

Q: What about the GI50 (SK-OV-3 ovarian) of the same compound?
A: 2590 nM

Q: What about the TGI (SK-OV-3 ovarian) of the same compound?
A: 9620 nM

Q: And the GI50 (HOP-62 NSCLC)?
A: 1130 nM

Q: What about the TGI (HOP-62 NSCLC) of the same compound?
A: > 100000 nM

Q: And the GI50 (RPMI-8226 leukemia)?
A: 227 nM

Q: What about the TGI (RPMI-8226 leukemia) of the same compound?
A: > 100000 nM

Q: And the GI50 (HS 578T breast)?
A: 439 nM

Q: What about the TGI (HS 578T breast) of the same compound?
A: 5910 nM

Q: And the GI50 (RXF 393 renal)?
A: 182 nM

Q: And the TGI (RXF 393 renal)?
A: 1730 nM

Q: What about the GI50 (SF-268 CNS) of the same compound?
A: 428 nM

Q: What about the TGI (SF-268 CNS) of the same compound?
A: > 100000 nM

Q: What about the GI50 (786-0 renal) of the same compound?
A: 390 nM

Q: And the TGI (786-0 renal)?
A: 13600 nM

Q: And the GI50 (SR leukemia)?
A: 89 nM

Q: And the TGI (SR leukemia)?
A: > 100000 nM

Q: And the GI50 (SF-295 CNS)?
A: 1310 nM

Q: What about the TGI (SF-295 CNS) of the same compound?
A: 5710 nM

Q: And the GI50 (NCI-H23 lung)?
A: 251 nM

Q: What about the TGI (NCI-H23 lung) of the same compound?
A: > 100000 nM

Q: What about the GI50 (K-562 leukemia) of the same compound?
A: 133 nM

Q: What about the TGI (K-562 leukemia) of the same compound?
A: > 100000 nM

Q: What about the GI50 (SNB-75 CNS) of the same compound?
A: 722 nM

Q: What about the TGI (SNB-75 CNS) of the same compound?
A: 3300 nM

Q: Which results are given for `CC1(C)CC[C@]23CC[C@]4(C)[C@H](CC[C@@H]5[C@@]6(C)CC[C@H](N)C(C)(C)[C@@H]6CC[C@]54C)[C@H]2[C@H]1OC3`?
A: GI50 (SF-539 CNS): 1740 nM; TGI (SF-539 CNS): 3220 nM; GI50 (SNB-19 CNS): 1900 nM; TGI (SNB-19 CNS): 3720 nM; GI50 (COLO 205 colon): 1910 nM; TGI (COLO 205 colon): 3620 nM; GI50 (OVCAR-8 ovarian): 2570 nM; TGI (OVCAR-8 ovarian): 6840 nM; GI50 (NCI-H460 lung): 1850 nM; TGI (NCI-H460 lung): 3600 nM; GI50 (ACHN renal): 1820 nM; TGI (ACHN renal): 3260 nM; GI50 (M14 melanoma): 1920 nM; TGI (M14 melanoma): 3880 nM; GI50 (HCT-15 colon): 1620 nM; TGI (HCT-15 colon): 3150 nM; GI50 (HCT-116 colon): 1740 nM; TGI (HCT-116 colon): 3200 nM; GI50 (EKVX NSCLC): 1830 nM; TGI (EKVX NSCLC): 3840 nM; GI50 (OVCAR-4 ovarian): 2750 nM; TGI (OVCAR-4 ovarian): 7480 nM; GI50 (CCRF-CEM leukemia): 2110 nM; TGI (CCRF-CEM leukemia): 36300 nM; GI50 (BT-549 breast): 15400 nM; TGI (BT-549 breast): 29000 nM; GI50 (CAKI-1 renal): 1690 nM; TGI (CAKI-1 renal): 3190 nM; GI50 (SN12C renal): 1790 nM; TGI (SN12C renal): 3570 nM; GI50 (MDA-MB-435): 1910 nM; TGI (MDA-MB-435): 3730 nM; GI50 (A549 NSCLC): 1980 nM; TGI (A549 NSCLC): 4360 nM; GI50 (U251 CNS): 1790 nM; TGI (U251 CNS): 3660 nM; GI50 (TK-10 renal): 15700 nM; TGI (TK-10 renal): 31100 nM; GI50 (UACC-257 melanoma): 15300 nM; TGI (UACC-257 melanoma): 35600 nM; GI50 (MOLT-4 leukemia): 2170 nM; TGI (MOLT-4 leukemia): 7300 nM; GI50 (NCI-H522 lung): 2980 nM; TGI (NCI-H522 lung): 9750 nM; GI50 (HCC-2998 colon): 1760 nM; TGI (HCC-2998 colon): 3330 nM; GI50 (KM12 colon): 1920 nM; TGI (KM12 colon): 3650 nM; GI50 (SK-MEL-2 melanoma): 2980 nM; TGI (SK-MEL-2 melanoma): 10100 nM; GI50 (DU-145 prostate): 1890 nM; TGI (DU-145 prostate): 3670 nM; GI50 (A498 renal): 11700 nM; TGI (A498 renal): 27100 nM; GI50 (SK-OV-3 ovarian): 14100 nM; TGI (SK-OV-3 ovarian): 28700 nM; GI50 (MCF7 breast): 1620 nM; TGI (MCF7 breast): 3320 nM; GI50 (SW-620 colon): 2000 nM; TGI (SW-620 colon): 4100 nM; GI50 (HOP-62 NSCLC): 1880 nM; TGI (HOP-62 NSCLC): 3780 nM; GI50 (HOP-92 NSCLC): 2500 nM; TGI (HOP-92 NSCLC): 6590 nM; GI50 (RPMI-8226 leukemia): 2730 nM; TGI (RPMI-8226 leukemia): 7210 nM; GI50 (HS 578T breast): 2580 nM; TGI (HS 578T breast): 6900 nM; GI50 (RXF 393 renal): 1580 nM; TGI (RXF 393 renal): 2940 nM; GI50 (SF-268 CNS): 5980 nM; TGI (SF-268 CNS): 23500 nM; GI50 (786-0 renal): 1660 nM; TGI (786-0 renal): 3260 nM; GI50 (OVCAR-3 ovarian): 1830 nM; TGI (OVCAR-3 ovarian): 3480 nM; GI50 (HL-60(TB) leukemia): 1670 nM; TGI (HL-60(TB) leukemia): 3780 nM; GI50 (SK-MEL-5 melanoma): 1740 nM; TGI (SK-MEL-5 melanoma): 3200 nM; GI50 (UO-31 renal): 1500 nM; TGI (UO-31 renal): 2970 nM; GI50 (SR leukemia): 663 nM; TGI (SR leukemia): 4560 nM; GI50 (PC-3 prostate): 2340 nM; TGI (PC-3 prostate): 6140 nM; GI50 (SF-295 CNS): 1750 nM; TGI (SF-295 CNS): 3270 nM; GI50 (SK-MEL-28 melanoma): 1830 nM; TGI (SK-MEL-28 melanoma): 3930 nM; GI50 (UACC-62 melanoma): 1850 nM; TGI (UACC-62 melanoma): 3900 nM; GI50 (OVCAR-5 ovarian): 1870 nM; TGI (OVCAR-5 ovarian): 3950 nM; GI50 (T-47D breast): 3750 nM; TGI (T-47D breast): 19300 nM; GI50 (K-562 leukemia): 2080 nM; TGI (K-562 leukemia): 5940 nM; GI50 (SNB-75 CNS): 17000 nM; TGI (SNB-75 CNS): 38900 nM; GI50 (NCI-H226 lung): 5220 nM; TGI (NCI-H226 lung): 31100 nM
